Source: patent US7309484B2, “Compositions and methods for screening antibacterial compounds” (priority 2003, dated 2007)
Like-named read-outs stand apart in the source and are kept apart here. Bridge positions count the residues as written; N and C are the ends. Square brackets hold non-standard residues; d marks the D form. Peptide text beside a SMILES is read from it. * marks the point of attachment. Ileψ(thiazoline)Cys = CC[C@H](C)[C@H](N)C1=N[C@H](C(=O)*)CS1; dOrn = NCCC[C@@H](N)C(=O)O

How the values were obtained:
Assay type in all cases: cell-based, Bacillus subtilis
[1] = test system: B. subtilis wild-type strain CU1065 gene expression; experiment: DNA microarray analysis of the bacitracin stimulon, wild-type CU1065; settings: wild type CU1065, 5 min after bacitracin
Source text: The bacitracin stimulon of B. subtilis was examined using global transcriptome analysis. […] Under most conditions tested, about 60-70 genes were induced greater than 5-fold. […] The scatter-plot represents the data sets obtained for strain HB0920 (yvqH was still detected as bacitracin-inducible due to the presence of a remaining region near the 5′-end of the gene). […] Members of the σ^M (white open squares) and σ^B (small black triangles) regulon are highlighted. All other gene signals are represented as small gray diamonds. […]
The bacitracin stimulon in the wild-type strain CU1065 was qualitatively similar to that of the liaH-deletion mutant HB0920 as judged by a comparison of the induction profile at 5 min, as illustrated in FIG. 8. […] Relative hybridization intensities are plotted for genes as measured for CU1065 (x axis) and HB0920 (y axis). […]
This locus is therefore a candidate for negative regulation by LiaH. In addition, expression of the bacAB and yvcRS loci was threefold greater in CU1065 than in the liaH mutant when both were measured 5 min after bacitracin treatment. […]
Each slide contains 9220 features corresponding to duplicate copies of each open reading frame, additional PCR products for some ORFs, rRNA genes, and other controls. […] Fluorescent signal intensity data was quantified using ArrayVision software (Molecular Dynamics) and normalized to the total detectable mRNA. […]

[2] = test system: B. subtilis liaH mutant HB0920 gene expression; experiment: microbe, parasite or virus in culture; settings: for fold induction at 100 µg/mL: Bacillus subtilis; for Fold induction 15 min / Fold induction 5 min: 100 μg/mL, listed as zinc-bacitracin
Source text: The bacitracin stimulon of B. subtilis was examined using global transcriptome analysis. […] Under most conditions tested, about 60-70 genes were induced greater than 5-fold. […] The scatter-plot represents the data sets obtained for strain HB0920 (yvqH was still detected as bacitracin-inducible due to the presence of a remaining region near the 5′-end of the gene). […] Members of the σ^M (white open squares) and σ^B (small black triangles) regulon are highlighted. All other gene signals are represented as small gray diamonds. Note that for the generation of this graphical display the data sets could not be filtered to remove low quality and non-reproducible signals, thus some of the background signals (small gray diamonds) that appear to represent highly regulated genes are not significant.
The liaH-deletion mutant was included in the analysis because the well-characterized LiaH-homologue in E. coli, PspA, functions as a repressor of transcription (Adams et al., 2003, J Bacteriol. 185: 1174-1180; Bordes et al., 2003, Proc Natl Acad Sci USA. 100: 2278-2283, the entire teachings of which are incorporated herein by reference). […] Similar results were obtained with CU1065.
For microarray analysis 100 mL of LB medium were inoculated from a fresh overnight LB-plate and incubated at 37° C. with aeration until the culture reached an O.D.600≈0.45, when the culture was split: 30 mL served as an un-induced control. To the remaining culture bacitracin was added to a final concentration of 100 μg/mL and 30 mL samples were taken 5 and 15 min after addition. The cells were harvested by centrifugation at room temperature and cell pellets were shock frozen and stored at −70° C. for at least 30 min. […] After extraction the RNA was purified using the RNA clean-up protocol of the RNeasy kit (Qiagen) with on-column DNase treatment in order to remove abundant small RNA molecules (tRNAs and 5S rRNA) and residual genomic DNA.
Each slide contains 9220 features corresponding to duplicate copies of each open reading frame, additional PCR products for some ORFs, rRNA genes, and other controls. RNA preparations were used to synthesize Cy3- and Cy5-labeled cDNA and hybridization was performed as described (Ye et al., 2000, J Bacteriol. 182: 4458-4465; Ye et al., 2001, J Microbiol Methods. 47: 257-272, the entire teaching of which are incorporated herein by reference). All comparisons were performed twice (once each with Cy3 and Cy5) to control for possible differences in labeling efficiency between fluorophores. Fluorescent signal intensity data was quantified using ArrayVision software (Molecular Dynamics) and normalized to the total detectable mRNA. Mean fluorescence intensity is set to 1.0 with a value of 0.1 corresponding to background. Each expression ratio is represented by at least four separate measurements (duplicate spots on each of two slides).

[3] = test system: B. subtilis strain BFS2470; experiment: Concentration-dependent induction/killing experiments
Method: Concentration-dependent induction/killing experiments were performed for bacitracin, nisin, ramoplanin and vancomycin as shown in FIG. 7. In all four cases the induction of liaI occurred in a concentration-dependent manner (FIG. 7a), reaching a maximum at an antibiotic concentration of about 10 μg/ml (1 μg/mL for vancomycin). The time of antibiotic addition is indicated by an arrow. The antibiotic concentrations affecting the induction of PliaI according to the β3-galactosidase assay are indicated by white symbols. The corresponding concentrations are: bacitracin ([…]), nisin (50, 70 and 100 μg/ml), ramoplanin (20, 50 and 100 μg/mL) and vancomycin (5, 10, 50 and 100 μg/mL).
This finding correlates well with the bactericidal effects of these antibiotics as inferred from the dramatic decrease of optical density: there is little effect of bacitracin and vancomycin on cell growth during the first 30-60 min after addition even at high concentrations (FIG. 7b).
The cultures were incubated with aeration at 37° C.

For CC[C@H](C)[C@H](N)C1=N[C@H](C(=O)N[C@@H](CC(C)C)C(=O)N[C@H](CCC(=O)O)C(=O)N[C@H](C(=O)N[C@H]2CCCCNC(=O)[C@H](CC(N)=O)NC(=O)[C@@H](CC(=O)O)NC(=O)[C@H](Cc3cnc[nH]3)NC(=O)[C@@H](Cc3ccccc3)NC(=O)[C@H]([C@@H](C)CC)NC(=O)[C@@H](CCCN)NC2=O)[C@@H](C)CC)CS1 [Bacitracin] ({Ileψ(thiazoline)Cys}-L[dE]IK[dOrn]I[dF]H[dD]N; lactam 4-C), the “induction of yhcYZ/yhdA locus” value [1] was “not induced”, the fold induction at 100 µg/mL ([2]; 5 min, read-out: Fold induction 5 min, gene bcrC, 100 μg/mL, 5 min) was ~10 and the fold induction at 100 µg/mL ([2]; 5 min, read-out: Fold induction 5 min, gene cadA (yvgW), 100 μg/mL, 5 min) was 58. For the same molecule, the fold induction at 100 µg/mL ([2]; 5 min, read-out: Fold induction 5 min, gene cotY, 100 μg/mL, 5 min) was 9.4, the fold induction at 100 µg/mL ([2]; 5 min, read-out: Fold induction 5 min, gene czcD, 100 μg/mL, 5 min) was 61 and the fold induction at 100 µg/mL ([2]; 5 min, read-out: Fold induction 5 min, gene czcO (trkA), 100 μg/mL, 5 min) was 33. The fold induction at 100 µg/mL ([2]; 5 min, read-out: Fold induction 5 min, gene ydhK, 100 μg/mL, 5 min) was 12, the fold induction at 100 µg/mL ([2]; 5 min, read-out: Fold induction 5 min, gene yetG, 100 μg/mL, 5 min) was 1.4 and the fold induction at 100 µg/mL ([2]; 5 min, read-out: Fold induction 5 min, gene ykvS, 100 μg/mL, 5 min) was 5.9. For the same molecule, the fold induction at 100 µg/mL ([2]; 5 min, read-out: Fold induction 5 min, gene ytzB, 100 μg/mL, 5 min) was 2.8, the fold induction at 100 µg/mL ([2]; 5 min, read-out: Fold induction 5 min, gene yybR, 100 μg/mL, 5 min) was 5.4 and the fold induction at 100 µg/mL ([2]; 5 min, read-out: Fold induction 5 min, gene(s) bacAB (ytsCD), 100 μg/mL, 5 min) was 280. The fold induction at 100 µg/mL ([2]; 5 min, read-out: Fold induction 5 min, gene(s) gerAA/AB, 100 μg/mL, 5 min) was 7.1, the fold induction at 100 µg/mL ([2]; 5 min, read-out: Fold induction 5 min, gene(s) ycgRQ, 100 μg/mL, 5 min) was 6.7 and the fold induction at 100 µg/mL ([2]; 5 min, read-out: Fold induction 5 min, gene(s) ygaCD, 100 μg/mL, 5 min) was 2. The fold induction at 100 µg/mL ([2]; 5 min, read-out: Fold induction 5 min, gene(s) yhcYZ-yhdA, 100 μg/mL, 5 min) was 20, the fold induction at 100 µg/mL ([2]; 5 min, read-out: Fold induction 5 min, gene(s) yjbIH, 100 μg/mL, 5 min) was 5.2 and the fold induction at 100 µg/mL ([2]; 5 min, read-out: Fold induction 5 min, gene(s) ykuNOP, 100 μg/mL, 5 min) was 1.4. The fold induction at 100 µg/mL ([2]; 5 min, read-out: Fold induction 5 min, gene(s) ytrBCDEF, 100 μg/mL, 5 min) was 9.1, the fold induction at 100 µg/mL ([2]; 5 min, read-out: Fold induction 5 min, gene(s) yvcRS, 100 μg/mL, 5 min) was 12 and the fold induction at 100 µg/mL ([2]; 5 min, read-out: Fold induction 5 min, gene(s) yvqGFEC, 100 μg/mL, 5 min) was 6. For the same molecule, the fold induction at 100 µg/mL ([2]; 5 min, read-out: Fold induction 5 min, gene(s) yvqIH, 100 μg/mL, 5 min) was 772, the fold induction at 100 µg/mL ([2]; 0.25 h, read-out: Fold induction 15 min, gene bcrC, 100 μg/mL, 15 min) was ~10 and the fold induction at 100 µg/mL ([2]; 0.25 h, read-out: Fold induction 15 min, gene cadA (yvgW), 100 μg/mL, 15 min) was 9.8. For the same molecule, the fold induction at 100 µg/mL ([2]; 0.25 h, read-out: Fold induction 15 min, gene cotY, 100 μg/mL, 15 min) was 5.9, the fold induction at 100 µg/mL ([2]; 0.25 h, read-out: Fold induction 15 min, gene czcD, 100 μg/mL, 15 min) was 3.8 and the fold induction at 100 µg/mL ([2]; 0.25 h, read-out: Fold induction 15 min, gene czcO (trkA), 100 μg/mL, 15 min) was 2.8. It also gave a fold induction at 100 µg/mL ([2]; 0.25 h, read-out: Fold induction 15 min, gene ydhK, 100 μg/mL, 15 min) of 4.4, a fold induction at 100 µg/mL ([2]; 0.25 h, read-out: Fold induction 15 min, gene yetG, 100 μg/mL, 15 min) of 10 and a fold induction at 100 µg/mL ([2]; 0.25 h, read-out: Fold induction 15 min, gene ykvS, 100 μg/mL, 15 min) of 10. It also gave a fold induction at 100 µg/mL ([2]; 0.25 h, read-out: Fold induction 15 min, gene ytzB, 100 μg/mL, 15 min) of 11, a fold induction at 100 µg/mL ([2]; 0.25 h, read-out: Fold induction 15 min, gene yybR, 100 μg/mL, 15 min) of 3.7 and a fold induction at 100 µg/mL ([2]; 0.25 h, read-out: Fold induction 15 min, gene(s) bacAB (ytsCD), 100 μg/mL, 15 min) of 360. It also gave a fold induction at 100 µg/mL ([2]; 0.25 h, read-out: Fold induction 15 min, gene(s) gerAA/AB, 100 μg/mL, 15 min) of 4.2, a fold induction at 100 µg/mL ([2]; 0.25 h, read-out: Fold induction 15 min, gene(s) ycgRQ, 100 μg/mL, 15 min) of 7.9 and a fold induction at 100 µg/mL ([2]; 0.25 h, read-out: Fold induction 15 min, gene(s) ygaCD, 100 μg/mL, 15 min) of 12. The fold induction at 100 µg/mL ([2]; 0.25 h, read-out: Fold induction 15 min, gene(s) yhcYZ-yhdA, 100 μg/mL, 15 min) was 14, the fold induction at 100 µg/mL ([2]; 0.25 h, read-out: Fold induction 15 min, gene(s) yjbIH, 100 μg/mL, 15 min) was 7.1 and the fold induction at 100 µg/mL ([2]; 0.25 h, read-out: Fold induction 15 min, gene(s) ykuNOP, 100 μg/mL, 15 min) was 12. It also gave a fold induction at 100 µg/mL ([2]; 0.25 h, read-out: Fold induction 15 min, gene(s) ytrBCDEF, 100 μg/mL, 15 min) of 9.7, a fold induction at 100 µg/mL ([2]; 0.25 h, read-out: Fold induction 15 min, gene(s) yvcRS, 100 μg/mL, 15 min) of 24 and a fold induction at 100 µg/mL ([2]; 0.25 h, read-out: Fold induction 15 min, gene(s) yvqGFEC, 100 μg/mL, 15 min) of 7. The fold induction at 100 µg/mL ([2]; 0.25 h, read-out: Fold induction 15 min, gene(s) yvqIH, 100 μg/mL, 15 min) was 1060, the “Fold induction 15 min” value ([2]; gene bcrC) was 9.5 fold and the “Fold induction 5 min” value ([2]; gene(s) bacAB (ytsCD), 5 min) was 282 fold. The “Fold induction 15 min” value ([2]; gene(s) bacAB (ytsCD)) was 365 fold, the “Fold induction 5 min” value ([2]; gene(s) yhcYZ-yhdA, 5 min) was 21 fold and the “Fold induction 15 min” value ([2]; gene(s) yvcRS) was 25 fold. For the same molecule, the “Fold induction 5 min” value ([2]; gene(s) yvqGFEC, 5 min) was 6.1 fold, the “lacZ-expression at higher concentration” value ([3]; FIG. 7a, in words) was “remained elevated” and the “effect on cell growth / optical density” value ([3]; high concentrations, FIG. 7b, in words) was “little effect”. For the same molecule, the “antibiotic concentration at maximum induction of liaI” value ([3]; β-galactosidase assay after 30 min, 0.01 to 100 μg/ml tested) was “about 10 μg/ml”.
